Source: patent US20230019491A1, “PYRIMIDINE TBK/IKKe INHIBITOR COMPOUNDS AND USES THEREOF” (Merck Patent GmbH, priority 2017, published 2023)
Counter-ions that a name gives are not always drawn.

Columns and labels:
IKKε = molecular target: T1, IKKε (Homo sapiens, UniProt Q14164); experiment: IKKε biochemical assay; settings: 10 point 1:4 dose response, 30 uM top concentration, 90 min at 25° C., LabChip EZ Reader II; read-out: IKKε_IC50
T1 sequence (Q14164 1-716): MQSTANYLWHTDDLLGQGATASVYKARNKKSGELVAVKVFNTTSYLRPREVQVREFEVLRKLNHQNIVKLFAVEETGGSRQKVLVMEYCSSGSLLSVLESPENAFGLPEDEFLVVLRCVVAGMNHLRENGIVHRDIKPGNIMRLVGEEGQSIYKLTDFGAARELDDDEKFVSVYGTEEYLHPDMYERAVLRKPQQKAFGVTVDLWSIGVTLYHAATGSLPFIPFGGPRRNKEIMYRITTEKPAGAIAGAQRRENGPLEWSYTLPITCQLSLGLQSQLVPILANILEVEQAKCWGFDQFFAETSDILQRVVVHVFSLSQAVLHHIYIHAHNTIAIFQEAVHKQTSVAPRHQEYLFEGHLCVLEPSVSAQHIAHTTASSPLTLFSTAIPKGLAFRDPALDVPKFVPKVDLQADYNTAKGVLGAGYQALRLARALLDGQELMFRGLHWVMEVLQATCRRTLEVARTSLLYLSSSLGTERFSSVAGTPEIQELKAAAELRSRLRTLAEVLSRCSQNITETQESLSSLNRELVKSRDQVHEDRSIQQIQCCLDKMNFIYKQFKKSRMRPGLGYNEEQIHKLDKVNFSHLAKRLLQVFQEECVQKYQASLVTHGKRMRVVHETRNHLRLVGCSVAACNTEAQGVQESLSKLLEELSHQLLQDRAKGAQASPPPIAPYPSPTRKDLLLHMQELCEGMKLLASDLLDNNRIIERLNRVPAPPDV
Method in brief: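 Mobility-shift LabChip read-out followed a 90 min, 25° C. reaction of IKKε with substrate and test compound, with DMSO held at 1% final. Reactions were ended with stop buffer. Wells with 10 uM final staurosporine defined complete inhibition, and DMSO-only wells the uninhibited level.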

TBK1 = molecular target: T2, TBK1 (Homo sapiens, UniProt Q9UHD2); experiment: TBK biochemical assay; settings: 10 point 1:4 dose response, 30 uM top concentration, 90 min at 25° C., LabChip EZ Reader II; read-out: TBK1_IC50
T2 sequence (Q9UHD2 1-729): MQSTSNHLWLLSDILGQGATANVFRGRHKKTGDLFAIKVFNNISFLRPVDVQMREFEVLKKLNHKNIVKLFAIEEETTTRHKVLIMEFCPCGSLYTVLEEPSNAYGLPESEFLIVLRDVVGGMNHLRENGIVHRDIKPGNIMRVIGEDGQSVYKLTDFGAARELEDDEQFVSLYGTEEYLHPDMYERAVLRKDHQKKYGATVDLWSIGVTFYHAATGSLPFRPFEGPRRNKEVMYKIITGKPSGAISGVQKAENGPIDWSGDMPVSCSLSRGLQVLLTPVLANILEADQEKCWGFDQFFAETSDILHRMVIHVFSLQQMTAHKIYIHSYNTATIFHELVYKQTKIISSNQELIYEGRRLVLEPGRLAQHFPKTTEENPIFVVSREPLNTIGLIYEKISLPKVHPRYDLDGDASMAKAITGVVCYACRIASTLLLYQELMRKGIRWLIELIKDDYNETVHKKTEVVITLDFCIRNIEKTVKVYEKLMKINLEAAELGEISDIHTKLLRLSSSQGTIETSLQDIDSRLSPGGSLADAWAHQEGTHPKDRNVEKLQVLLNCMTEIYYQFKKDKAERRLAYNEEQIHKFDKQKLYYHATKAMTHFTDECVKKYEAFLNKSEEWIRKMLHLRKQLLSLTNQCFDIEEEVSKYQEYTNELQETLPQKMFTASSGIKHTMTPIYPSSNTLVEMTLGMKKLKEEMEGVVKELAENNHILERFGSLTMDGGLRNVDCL
Method in brief: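 Read-out was a Caliper LabChip mobility-shift assay, run after a 90-min, 25 °C reaction of TBK1 with substrate and compounds, quenched with stop buffer. Control wells received staurosporine at 10 uM final.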

Row | SMILES | IC50 (IKKε) | IC50 (TBK1)
1 | COc1nc(Nc2nccc(-c3ccc(N4CC5(CCN(C(=O)[C@H](C)O)CC5)C4)c(C#N)c3)n2)ccc1N1CCN(C2COC2)CC1 [Example 314, 2-[7-((S)-2-Hydroxy-propionyl)-2,7-diaza-spiro[3.5]non-2-yl]-5-{2-[6-methoxy-5-(4-oxetan-3-yl-piperazin-1-yl)-pyridin-2-ylamino]-pyrimidin-4-yl}-benzonitrile] | < 100 nM | < 100 nM
2 | COc1nc(Nc2nccc(-c3ccc(OC4CCN(C(=O)C(C)O)CC4)c(C#N)c3)n2)ccc1N1CCN(C)CC1 (centres unmarked) [Example 91, 2-[[1-(2-hydroxypropanoyl)piperidin-4-yl]oxy]-5-(2-[[6-methoxy-5-(4-methylpiperazin-1-yl)pyridin-2-yl]amino]pyrimidin-4-yl)benzonitrile hydrochloride] | < 100 nM | < 100 nM
3 | COc1nc(Nc2nccc(-c3ccc(OC4CN(C)C4)c(C#N)c3)n2)ccc1C(=O)N(C)C [Example 69, 6-[(4-[3-cyano-4-[(1-methylazetidin-3-yl)oxy]phenyl]pyrimidin-2-yl)amino]-2-methoxy-N,N-dimethylpyridine-3-carboxamide] | 100 to 1000 nM | 100 to 1000 nM
4 | COc1nc(Nc2nccc(-c3ccc(OC4CCN(C(=O)CO)CC4)c(C#N)c3)n2)ccc1N1CCN(C2COC2)CC1 [Example 186, 2-(1-(2-hydroxyacetyl)piperidin-4-yloxy)-5-(2-(6-methoxy-5-(4-(oxetan-3-yl)piperazin-1-yl)pyridin-2-ylamino)pyrimidin-4-yl)benzonitrile] | < 100 nM | < 100 nM
5 | COc1cc(Nc2nccc(-c3cc(C#N)c(OC4CCOCC4)cn3)n2)ncc1C(=O)N(C)C [Example 51, 6-([4-[4-cyano-5-(oxan-4-yloxy)pyridin-2-yl]pyrimidin-2-yl]amino)-4-methoxy-N,N-dimethylpyridine-3-carboxamide] | > 5000 nM | > 5000 nM
6 | COc1nc(Nc2nccc(-c3ccc(OC4CCN(C(=O)[C@H](C)CO)CC4(F)F)c(C#N)c3)n2)ccc1N1CCN(C2COC2)CC1 (stereo partly drawn) [Example 257, 2-[3,3-Difluoro-1-((R)-3-hydroxy-2-methyl-propionyl)-piperidin-4-yloxy]-5-{2-[6-methoxy-5-(4-oxetan-3-yl-piperazin-1-yl)-pyridin-2-ylamino]-pyrimidin-4-yl}-benzonitrile] | < 100 nM | < 100 nM
7 | C[C@@H](O)C(=O)N1CCC(Oc2ccc(-c3ccnc(Nc4ccccn4)n3)cc2C#N)C(F)(F)C1 (stereo partly drawn) [Example 221, 2-[3,3-Difluoro-1-((R)-2-hydroxy-propionyl)-piperidin-4-yloxy]-5-[2-(pyridin-2-ylamino)-pyrimidin-4-yl]-benzonitrile] | 100 to 1000 nM | 100 to 1000 nM
8 | COc1nc(Nc2nccc(-c3ccc(OC4CCN(C(=O)[C@@H](C)O)CC4(F)F)c(C#N)c3)n2)ccc1C1CCN(C)CC1 (stereo partly drawn) [Example 147, 2-([3,3-difluoro-1-[(2R)-2-hydroxypropanoyl]piperidin-4-yl]oxy)-5-(2-[[6-methoxy-5-(1-methylpiperidin-4-yl)pyridin-2-yl]amino]pyrimidin-4-yl)benzonitrile] | < 100 nM | < 100 nM
9 | C[C@H](O)C(=O)N1CC(Oc2ccc(-c3ccnc(Nc4ccc(N5CCN(C6COC6)CC5)cc4)n3)cc2C#N)C1 [Example 172, 2-([1-[(2S)-2-hydroxypropanoyl]azetidin-3-yl]oxy)-5-[2-([4-[4-(oxetan-3-yl)piperazin-1-yl]phenyl]amino)pyrimidin-4-yl]benzonitrile] | 100 to 1000 nM | 100 to 1000 nM
10 | CCOc1nc(Nc2nccc(-c3ccc(OC4CCN(C(=O)[C@H](C)O)CC4(F)F)c(C#N)c3)n2)ccc1N1CCN(C2COC2)CC1 (stereo partly drawn) [Example 249, 2-([33-difluoro-1-[(2S)-2-hydroxypropanoyl]piperidin-4-yl]oxy)-5-[2-([6-ethoxy-5-[4-(oxetan-3-yl)piperazin-1-yl]pyridin-2-yl]amino)pyrimidin-4-yl]benzonitrile] | < 100 nM | < 100 nM
11 | COc1cc(Nc2nccc(-c3ccc(OC4CCN(C(=O)[C@H](C)O)CC4(F)F)c(C#N)c3)n2)ccc1N1CCN(C2COC2)CC1 (stereo partly drawn) [Example 217, 2-([3,3-difluoro-1-[(2S)-2-hydroxypropanoyl]piperidin-4-yl]oxy)-5-[2-([3-methoxy-4-[4-(oxetan-3-yl)piperazin-1-yl]phenyl]amino)pyrimidin-4-yl]benzonitrile] | < 100 nM | < 100 nM
12 | COc1nc(Nc2nccc(-c3ccc(N4CCC5(CC4)CNC5)c(C#N)c3)n2)ccc1N1CCN(C2COC2)CC1 [Example 313, 2-(2,7-Diaza-spiro[3.5]non-7-yl)-5-{2-[6-methoxy-5-(4-oxetan-3-yl-piperazin-1-yl)-pyridin-2-ylamino]-pyrimidin-4-yl}-benzonitrile] | 100 to 1000 nM | < 100 nM
13 | COc1nc(Nc2nccc(-c3ccc(O[C@H]4CCN(C(=O)[C@H](C)O)C[C@H]4F)c(C#N)c3)n2)ccc1N1CCN(C2COC2)CC1 [Example 116, 2-[(3R,4S)-3-Fluoro-1-((S)-2-hydroxy-propionyl)-piperidin-4-yloxy]-5-{2-[6-methoxy-5-(4-oxetan-3-yl-piperazin-1-yl)-pyridin-2-ylamino]-pyrimidin-4-yl}-benzonitrile] | < 100 nM | < 100 nM
14 | C[C@H](O)C(=O)N1CCC(Oc2ccc(-c3ccnc(Nc4ccc(N5CCN(C6COC6)CC5)cn4)n3)cc2C#N)C(F)(F)C1 (stereo partly drawn) [Example 245, 2-([33-difluoro-1-[(2S)-2-hydroxypropanoyl]piperidin-4-yl]oxy)-5-[2-([5-[4-(oxetan-3-yl)piperazin-1-yl]pyridin-2-yl]amino)pyrimidin-4-yl]benzonitrile] | < 100 nM | < 100 nM
15 | COc1cc(Nc2nccc(-c3ccc(OC4CCN(C(=O)[C@H](C)O)CC4)c(C#N)c3)n2)ncc1N1CCN(C2COC2)CC1 [Example 318, 2-([1-[(2S)-2-hydroxypropanoyl]piperidin-4-yl]oxy)-5-[2-([4-methoxy-5-[4-(oxetan-3-yl)piperazin-1-yl]pyridin-2-yl]amino)pyrimidin-4-yl]benzonitrile] | 100 to 1000 nM | 100 to 1000 nM
16 | COc1cc(Nc2nccc(-c3ccc(OC4CCN(C(=O)[C@@H](C)O)CC4)c(C#N)c3)n2)ncc1N1CCN(C2COC2)CC1 [Example 319, 2-([1-[(2R)-2-hydroxypropanoyl]piperidin-4-yl]oxy)-5-[2-([4-methoxy-5-[4-(oxetan-3-yl)piperazin-1-yl]pyridin-2-yl]amino)pyrimidin-4-yl]benzonitrile] | 100 to 1000 nM | 1000 to 5000 nM
17 | COc1nc(Nc2nccc(-c3ccc(OC4CCOCC4)c(C#N)c3)n2)ccc1C(=O)N1C2COCC1CC(O)C2 (centres unmarked) [Example 17, 5-(2-[[5-([7-hydroxy-3-oxa-9-azabicyclo[3.3.1]nonan-9-yl]carbonyl)-6-methoxypyridin-2-yl]amino]pyrimidin-4-yl)-2-(oxan-4-yloxy)benzonitrile] | < 100 nM | < 100 nM
18 | COc1ccc(Nc2nccc(-c3ccc(OC4CCN(C(=O)[C@H](C)O)CC4(F)F)c(C#N)c3)n2)nc1OC (stereo partly drawn) [Example 211, 2-[3,3-Difluoro-1-((S)-2-hydroxy-propionyl)-piperidin-4-yloxy]-5-[2-(5,6-dimethoxy-pyridin-2-ylamino)-pyrimidin-4-yl]-benzonitrile] | < 100 nM | < 100 nM
19 | COc1nc(Nc2nccc(-c3cc(C#N)c(OC4CCOCC4)cn3)n2)ccc1N1CCN(C)CC1 [Example 44, 2-(2-[[6-methoxy-5-(4-methylpiperazin-1-yl)pyridin-2-yl]amino]pyrimidin-4-yl)-5-(oxan-4-yloxy)pyridine-4-carbonitrile hydrochloride] | > 5000 nM | 1000 to 5000 nM
